PMC9861830, “Hydroxylated Coumarin-Based Thiosemicarbazones as Dual Antityrosinase and Antioxidant Agents” (International Journal of Molecular Sciences, 2023)

Experiments:
[1] = DPPH radical scavenging assay; conditions: for EC50: ethanol, absorbance at 517 nm, 30 min, mean ± SEM, three experiments
Description: The antioxidant activity of T1 and its hydroxylated derivatives T2–6 was evaluated via DPPH assay, which is based on the ability of the stable DPP· radical species to be converted in its diamagnetic form (DPPH) by accepting an H· from the tested compound. […] From the evaluation of the relative decrease in absorbance at different concentrations of each tested compound, the antioxidant activities were evaluated by reporting their EC50 values, as shown in Table 1.
(§1) Radical scavenging activities were measured with DPPH and ABTS radical scavenging assays. […] In brief, for the DPPH antioxidant assay procedure, each test compound was dissolved in DMSO at 1.0 mM concentration and then diluted with absolute ethanol in the 500–2.0 µM concentration range. A solution of the DPPH radical (0.1 mM, absolute ethanol) was freshly prepared, stored in the dark, and used within a few hours. Each test solution (1500 µL) was vigorously mixed to an equal volume of DPPH inside a cuvette, and the molecular absorbance at 517 nm was recorded for 30 min. Each test was evaluated in three independent experiments. Ascorbic acid was used as the reference compound. For the ABTS method, based on the capacity of an antioxidant to scavenge the free ABTS^+ generated in the aqueous phase by reacting with a strong oxidizing, the free radical ABTS was produced by reacting 7 mM ABTS with 2.45 mM potassium persulfate in aqueous solution and kept in darkness at room temperature for 24 h before use. Samples of each compound (10 µL) were added to 990 µL of ABTS, and the reduction of the blue-green radical ABTS by hydrogen-donating antioxidants was evaluated by measuring the absorbance at 734 nm after 1 min incubation. The 6-hydroxy-2,5,7,8-tetramethylchromane-2-carboxylic acid (Trolox) was used as the antioxidant standard.

[2] = ABTS radical scavenging assay; conditions: absorbance at 734 nm after 1 min; mean ± SEM, three experiments
Description: as §1

mushroom tyrosinase = assay: Tyrosinase inhibition assay (L-DOPA, dopachrome at 492 nm; Lineweaver–Burk plots); assay type: biochemical; conditions: for IC50: L-DOPA 0.5 mM, pH 6.8, 37 °C, mean ± SD, three experiments; for Ki: secondary plot of slope, read-out: Ki (inhibitor binding with free enzyme); for inhibition mode: Lineweaver–Burk plots, L-DOPA
Description: The inhibition of mushroom tyrosinase was evaluated as previously described with slight modifications. A mixture containing 50 mM phosphoric acid buffer solution (pH 6.8), a solution of mushroom tyrosinase (72 U/mL final concentration; Sigma Chemical Co., Milan, Italy), and DMSO with or without the sample were incubated at 37 °C for 10 min. Then, L-DOPA solution (0.5 mM final) was added, and the reaction was monitored following the molecular absorbance at 492 nm that resulted from the formation of the dopachrome product. Measurements were performed using a FLUOstar OPTIMA (BMG Labtech, Offenburg, Germany). […] The inhibition mode was analysed using the Lineweaver–Burk plots.

[3] = Potentiometric and spectrophotometric titrations (protonation constants, speciation); assay type: physicochemical; conditions: for Logβ / pK: 25 °C, NaCl 0.1 M; for species present at pH of the enzymatic inhibitory studies: pH 6.8
Description: Potentiometric titrations were performed in a thermostated vessel at 25 °C in 0.1 M ionic strength (NaCl) using a Mettler-Toledo Seven Compact pH/Ion-meter and equipped with a Mettler-Toledo InLab Micro Pro combined glass electrode with an integrated temperature probe. The glass electrode was calibrated daily and checked using the GLEE software package. UV–visible (UV–Vis) measurements were carried out with an Agilent Cary 60 spectrophotometer using a 0.1 cm quartz cuvette. Protonation constants of the studied molecules were determined via spectrophotometric and potentiometric titrations. Solutions of ligands were prepared daily by dissolving a suitable amount of the compound in DMSO (concentration ≈ 12 mM) prior to the required dilution in 0.1 M NaCl (final DMSO content 1% V/V, concentration ≈ 1.2∙10^−4 M). Four HCl equivalents for T1, five for T2–4, and six for T5–6 were added before titrating with an NaOH standard solution. Potentiometric and spectrophotometric data were simultaneously analysed using the Hyperquad 2006 software package. Speciation diagrams were obtained using Hyss 2009 program with the spectrophotometric data. The number of linearly independent absorbing species was found by applying the eigenvalue analysis to the absorbance data matrix.

[4] = Cell viability assay (MTT); assay type: cell-based, Murine; conditions: mouse, B16F10 melanoma cells, 100 μM, percentage of control
Description: (§2) The cellular cytotoxicity of compound T6 was investigated using a 3-(4,5-dimethylthiazol-2-yl)-2,5-diphenil-tetrazolium bromide (MTT) assay. Murine melanoma B16F10 cells were seeded in 96-well plates at a density of 5 × 10^3 cells/well and cultured in Dulbecco’s Modified Eagle Medium (DMEM) with 10% fetal bovine serum at 37 °C in a humidified atmosphere with 5% CO2. The B16F10 cell line was exposed for 48 h to compound T6 at concentrations ranging from 4 to 100 μM. After incubation, culture supernatants were removed and exchanged with a medium containing 0.5 mg/mL MTT. Then, after 3 h of incubation at 37 °C, the cells were lysed with 100 μL of DMSO. The absorbance was determined at 560 nm using a microplate reader (Multiskan FC-Thermo Scientific Inc. Waltham, MA, USA).

B16F10 cells = assay: Cell viability assay (MTT); assay type: cell-based, Murine; conditions: 48 h
Description: as §2

[5] = L + H^+ ⇌ HL (first protonation)

Compound | EC50 [1] [µM] | EC50 [2] [µM] | IC50 (mushroom tyrosinase) [µM] | Logβ ([3]; L + 2H^+ ⇌ H2L) | Logβ ([3]; L + 3H^+ ⇌ H3L) | Logβ [3, 5] | pK [3, 5] | pK ([3]; step to H2L) | pK ([3]; step to H3L) | Logβ ([3]; L + 4H^+ ⇌ H4L) | pK ([3]; step to H4L) | melting point | also measured
C/C(=N\NC(N)=S)c1cc2ccccc2oc1=O [T1, (1E)-2-(1-(2-oxo-2H-chromen-3-yl)ethylidene)hydrazine-1-carbothioamide] | > 250 | 72 ± 6 | 4 ± 2 | 13.47 (9) | 17.45 (8) | 8.46 (9) | 8.5 | 5.0 | 4.0 |  |  |  | Ki (mushroom tyrosinase; L-DOPA substrate): 0.85 µM; inhibition mode (mushroom tyrosinase): competitive inhibition; species present in blood plasma ([3]; pH 7.4): neutral form (as HL)
O=C1O[C@H]([C@@H](O)CO)C(O)=C1O [Ascorbic Acid, Ascorbic acid, reference compound] | 18.6 ± 0.6 |  |  |  |  |  |  |  |  |  |  |  | 
C/C(=N\NC(N)=S)c1cc2ccc(O)cc2oc1=O [T3, (1E)-2-(1-(7-hydroxy-2-oxo-2H-chromen-3-yl)ethylidene)hydrazine-1-carbothioamide] | > 250 | 36 ± 1 | 5 ± 2 | 17.6 (1) | 23.26 (7) | 10.5 (1) | 10.5 | 7.1 | 5.7 | 26.7 (1) | 3.4 |  | 
C/C(=N\NC(N)=S)c1cc2cc(O)ccc2oc1=O [T2, (1E)-2-(1-(6-hydroxy-2-oxo-2H-chromen-3-yl)ethylidene)hydrazine-1-carbothioamide] | > 250 | 25.7 ± 0.4 | 14 ± 7 | 17.24 (6) | 22.4 (1) | 10.20 (8) | 10.2 |  | 5.4 | 26.7 (1) | 4.3 | 222 to 224 °C (dec.) | 
Cc1c(C)c2c(c(C)c1O)CCC(C)(C(=O)O)O2 (stereo not drawn) [Trolox, 6-hydroxy-2,5,7,8-tetramethylchromane-2-carboxylic acid, reference compound] |  | 13 ± 1 |  |  |  |  |  |  |  |  |  |  | 

More lines, main results first:

EC50 [1] [µM] | EC50 [2] [µM] | IC50 (mushroom tyrosinase) [µM] | Logβ ([3]; L + 2H^+ ⇌ H2L) | Logβ ([3]; L + 3H^+ ⇌ H3L) | Logβ [3, 5] | pK [3, 5] | pK ([3]; step to H2L) | pK ([3]; step to H3L) | Logβ ([3]; L + 4H^+ ⇌ H4L) | pK ([3]; step to H4L) | melting point | Compound | also measured
28 ± 2 | 21.8 ± 0.8 | 5.7 ± 0.8 | 17.26 (1) | 22.94 (5) | 10.4 (1) | 10.4 | 6.9 | 5.7 | 26.5 (2) | 3.6 | 208 to 210 °C (dec.) | C/C(=N\NC(N)=S)c1cc2cccc(O)c2oc1=O [T4, (1E)-2-(1-(8-hydroxy-2-oxo-2H-chromen-3-yl)ethylidene)hydrazine-1-carbothioamide] | radical scavenging / antioxidant activity in DPPH assay (in words) ([1]; in comparison with ascorbic acid): modest antioxidant activity
17.9 ± 0.4 | 8.8 ± 0.4 | 4.1 ± 0.7 | 19.3 (1) | 25.1 (1) | 10.5 (2) | 10.5 | 8.8 | 5.8 | 29.5 (1) | 4.4 | 228 to 230 °C (dec.) | C/C(=N\NC(N)=S)c1cc2ccc(O)c(O)c2oc1=O [T6, (1E)-2-(1-(7,8-dihydroxy-2-oxo-2H-chromen-3-yl)ethylidene)hydrazine-1-carbothioamide] | Kis (inhibitor binding with enzyme–substrate complex) (mushroom tyrosinase; L-DOPA substrate, secondary plot of 1/Vmax): 10.65 µM; Ki (mushroom tyrosinase; L-DOPA substrate): 5.88 µM; inhibition mode (mushroom tyrosinase): mixed-type inhibitor; species present at pH of the enzymatic inhibitory studies [3]: monoanionic form, H2L^-; viability at 48 h, 100 µM [4]: > 90%; cytotoxic effect (in words) (B16F10 cells; 4 μM): no cytotoxic effect; cytotoxicity (in words) (B16F10 cells; 4–100 μM): not cytotoxic
7.1 ± 0.3 | 9 ± 1 | 6 ± 2 | 18.46 (9) | 24.76 (7) | 10.7 (1) | 10.7 | 7.8 | 6.3 | 29.50 (6) | 4.7 | 228 to 230 °C (dec.) | C/C(=N\NC(N)=S)c1cc2cc(O)c(O)cc2oc1=O [T5, (1E)-2-(1-(6,7-dihydroxy-2-oxo-2H-chromen-3-yl)ethylidene)hydrazine-1-carbothioamide] | species present at pH of the enzymatic inhibitory studies [3]: monoanionic form, H2L^-
